Measured values reported in patent US8193328B2, “Identification of modulators of serine protease inhibitor Kazal and their use as anti-cancer and anti-viral agents” (Philadelphia Health & Education Corporation, priority 2005, dated 2012).
Where a SMILES comes first, the peptide text is derived from it. The star is where a group is joined. Cbz = O=C(OCc1ccccc1)*; CH2F = FC*

Experiments:
HCV replication = test: Northern blot of HCV RNA in HCV replicon cells after antiviral treatment; assay type: cell-based, Hepatitis C virus; settings: 10^5 IU/ml overnight
Procedure: (§1) FIG. 7A-7B. SPIK in the HCV expressing cells. SPIK RNA was detected in the cells with/without HCV replicon as before. HCV RNA was defined by the hybridization of membrane with radio-labeled probe specified HCV.
(§2) FIG. 7B—HCV replicon cells were incubated with HCV polymerase inhibitor 888 (2 mM) 2 days (Lines 3 & 4 duplicate) and 10^5 IU/ml interferon-a overnight (Lines 5 & 6 duplicate) or left untreated (Line 1 & 2 duplicate). The suppressions of HCV RNA and SPIK RNA then were analyzed by Northern blot as before. The smear detected by HCV probe under the band of HCV RNA probably was the replication form of HCV.
(§3) Over-expression of SPIK RNA in G54 cells can be abrogated by inhibition of HCV replication. Treatment of HCV replicon cells with either 2 mM of the HCV polymerase inhibitor 888 for two days or 10^5 IU/ml interferon-a overnight has reduced HCV replication by approximately 90% [FIG. 7B, lane 3-6]. This is consistent with previous reports of these antiviral agents (55, 56).

SPIK RNA = test: Northern blot of SPIK RNA in G54 HCV replicon cells after antiviral treatment; assay type: cell-based, human; settings: 10^5 IU/ml overnight
Procedure: as §1, §2, §3

caspase 3 = test: Caspase 3 activity in S2-3 and Huh7T cells (Biovision kit); assay type: cell-based, human; settings: 40 hours treatment
Procedure: FIG. 5B. The activation of caspase 3 (CDCA) in S2-3 cells treated with etoposide but not BFA/CHX/Z-VAD. The S2-3 cell and its parental cell Huh7T were either treated with SPDCA inducer BFA/CHX/ZVAD or CDCA inducer etoposide. The caspase activity was determined after […] treatment by Caspase 3 detection kit (Biovision, Mountain View, Calif.).
The same level of apoptosis induced by etoposide in S2-3 cell and Huh7T cell was confirmed by the examination of caspase 3 activity in these cells. After 40 hours treatment, all cells were lysed in […] lysis buffer. […] lysate of each sample was analyzed for caspase 3 activity test using caspase 3 detected kits [Biovision, Mountain View, Calif.]. […] Additionally, the activity of caspase3 was not increased in the cells, in which SPDCA was induced by BFA/CHX, even by double doses [FIG. 5B, B/C/ZX2].

S2-3 cells = test: Etoposide induced CDCA in S2-3 cells, annexin stain; assay type: cell-based, human; settings: 400 μM etoposide, 40 hours, data not shown
Procedure: (§4) FIG. 5A. S2-3 and Huh7T cells were treated with CDCA inducer 400 μM etoposide. After 40 hours, the cells apoptosis was examined in microscope and stained with annexin.
(§5) 10^5 S2-3 and Huh7T cells were seeded in 60 mm dishes. When the cell reached 90% confluent, CDCA inducer etoposide was added. After 28-40 hours, the cell shrinkage, blebbing and detachment from culture was found in both cell lines. At the same time, the strong fluorescence stain by annexin was also observed in both cell lines [FIG. 5A]. The amount of apoptotic cells in two cell lines was very similar. Around 62% S2-3 cell was stained by annexin, while 58% of Huh7T cell was stained after 40 hours treatment [data not shown].

Huh7T cells = test: Etoposide induced CDCA in Huh7T cells, annexin stain; assay type: cell-based, human; settings: 400 μM etoposide, 40 hours, data not shown
Procedure: as §4, §5

HepG2.215 cells = test: CDCA induced by etoposide in HepG2.215 cells; assay type: cell-based, human; settings: data not shown
Procedure: (§6) To study the influence of HCV replication upon SPDCA, G54 and Huh7T cells (its parent cell) were seeded in a 60 mm dish. SPDCA was induced by BFA/CHX/Z-VAD. […] The insensitivity of HCV replicon cell to SPDCA was also seen subsequently by annexin staining. Compared to the parental cells, much fewer HCV expressing cells were stained by annexin after being treated with SPDCA inducers BFA/CHX/Z-VAD [FIG. 8C, Annexin]. DNA fragmentation study also support that the HCV expressing cells were more resistant to apoptosis. 70 hours treatment of BFA/CHX/Z-VAD obviously triggered the DNA fragmentation in Huh7T cell, but not in G54 cells [FIG. 8D]. […] In contrast, both HepG2.215 and G54 are sensitive to CDCA induced by etoposide [data not shown].

G54 cells = test: CDCA induced by etoposide in G54 cells; assay type: cell-based, human; settings: data not shown
Procedure: as §6

Molecule	reduction of HCV replication (HCV replication)	SPIK level (SPIK RNA)	caspase 3 activity (caspase 3)	cells stained by annexin (S2-3 cells)	cells stained by annexin (Huh7T cells)	sensitivity to CDCA (HepG2.215 cells)	sensitivity to CDCA (G54 cells)
interferon-a	approximately 90%	correspondingly decreased with HCV RNA	–	–	–	–	–
CC(NC(=O)C(NC(=O)OCc1ccccc1)C(C)C)C(=O)NC(CC(=O)O)C(=O)CF (stereo not drawn) [Z-VAD] (Cbz-Val-Ala-Asp-CH2F; configuration not given here)	–	–	kept unchanged	–	–	–	–
COc1cc([C@@H]2c3cc4c(cc3[C@@H](O[C@@H]3O[C@@H]5CO[C@@H](C)O[C@H]5[C@H](O)[C@H]3O)[C@H]3COC(=O)[C@H]23)OCO4)cc(OC)c1O [etoposide]	–	–	at the same level in both cells	Around 62%	58%	sensitive	sensitive
